Measured values from patent publication US12564595B2, “Prophylactic and therapeutic pharmaceutical agent for HIV infectious diseases characterized by comprising combination of integrase inhibitor and anti-HIV agent” (Shionogi & Co., Ltd., priority 2019, dated 2026).

Test system: HIV
Experiment: microbe, parasite or virus in culture
Type: cell-based
Details: Human immunodeficiency virus 1, MT4, 96 h, read-out: EC50 (50% HIV inhibition concentration), MT-4 cells, HIV, cultured four days, MTT; compounds of formula (I) of (A)
Experimental: A serial dilution series of test samples was prepared in 96-well microplates (50 μL/well).
100 μL/well in each case were dispensed onto plates having test samples of 2.5×10^5/mL MT-4 cell suspension, and HIV virus solution was then dispensed thereto in the amount of 50 μL/well. Mixing was performed using a plate mixer and culturing was performed for four days in a CO2 incubator. MTT (3-(4,5-dimethylthiazol-2-yl)-2,5-diphenyltetrazolium bromide) liquid was dispensed into each well in the amount of 30 μL in each case. The reaction was conducted for 1 h in a CO2 incubator. 150 μL of supernatant were removed from each well, taking care not to aspirate any cells. 150 μL of cell solution were added, and thorough mixing was performed with a plate mixer until all the cells had been dissolved. The optical absorbance of the mixed plates was measured at two wavelengths: 560 nm/690 nm, with a microplate reader.

Point of comparison: CN1C(=O)c2c(O)c(=O)c(-c3nnc(Cc4c(F)cc(F)cc4F)s3)cn2N2C[C@@H]3CC[C@@H](C3)[C@@H]12 [II-149], EC50 0.6 nM. Against it:
- CN1C(=O)c2c(O)c(=O)c(-c3nnc(Cc4ccc(F)cc4F)s3)cn2N2CCOC[C@@H]12 [II-102] — 2.2-fold higher, 1.3 nM
- CCN1C(=O)c2c(O)c(=O)c(-c3nnc(Cc4ccc(F)cc4F)s3)cn2N2C[C@@H](C)CC[C@@H]12 [II-155] — 2-fold lower, 0.3 nM
- CCN1C(=O)c2c(O)c(=O)c(-c3nnc(Cc4c(F)cc(F)cc4F)s3)cn2N2C[C@@H]3CC[C@@H](C3)[C@@H]12 [II-131] — within 1.5-fold, 0.66 nM
- CCN1C(=O)c2c(O)c(=O)c(-c3nnc(Cc4cc(F)c(F)cc4F)s3)cn2N2C[C@@H]3CC[C@@H](C3)[C@@H]12 [II-148] — 8.7-fold higher, 5.2 nM
- CN1C(=O)c2c(O)c(=O)c(-c3nnc(Cc4cccc(Cl)c4F)s3)cn2N2CCOC[C@@H]12 [II-122] — 2.5-fold lower, 0.24 nM
- COC[C@@H]1CC[C@H]2N(C)C(=O)c3c(O)c(=O)c(-c4nnc(Cc5c(F)cc(F)cc5F)s4)cn3N12 [II-151] — 1.6-fold lower, 0.37 nM
- CCN1C(=O)c2c(O)c(=O)c(-c3nnc(Cc4ccc(F)cc4)s3)cn2N2C[C@@H]3CC[C@@H](O3)[C@@H]12 [II-128] — within 1.5-fold, 0.66 nM
- C[C@@H]1CCN2[C@@H](C1)N(C)C(=O)c1c(O)c(=O)c(-c3nnc(Cc4c(F)cc(F)cc4F)s3)cn12 [II-144] — within 1.5-fold, 0.69 nM

Test system: HIV mutant strain 1 (E138K/G140S/Q148H/N155H)
Experiment: Test Example 2: resistance evaluation test (HeLa-CD4 reporter), mutant strain 1
Type: cell-based
Details: FC=EC50 of mutant strain/EC50 of wild strain; HeLa-CD4 cells
Experimental: (§1) A serial dilution series of test samples in 96-well microplates was prepared (50 […]).
(§2) 2.5×10^4/mL of HeLa-CD4 cell suspension was dispensed into each of the microplates containing test sample, in the amount of 100 μL/well, and HIV virus liquid (wild strain and mutant strain) was then dispensed in an amount of 50 μL/well. Mixing was performed using a plate mixer and culturing was performed for three days in a CO2 incubator. After removing the cultured supernatant of each well by suction, 100 μL of the cell solution buffer in the reporter measurement kit was dispensed thereto, and freezing was conducted in a refrigerator (−80° C.). The plates frozen in the refrigerator were defrosted at room temperature, then mixed using a plate mixer and centrifuged for 5 min at 1,200 rpm. The supernatant of each well was divided to 96-well microplates (BLACK) in the amount of 20 μL in each case. The chemiluminescence reagent in the reporter assay kit was dispensed in the amount of 100 μL in each case, and, after reacting for about 1 h at room temperature, the amount of luminescence was measured using a MicroBeta TRILUX.
(§3) The degree of resistance (fold change (FC)) of each mutant strain was also calculated using the following formula. FC=EC50 of mutant strain/EC50 of wild strain (Results)
(§4) The results of the example compounds relating to formula (I) of (A) are shown below. The […] in respect of mutant strain 1 (E138K/G140S/Q148H/N155H) and the FC in respect of mutant strain 2 (E92Q/E138T/G140S/Q148H) are shown in the Table.

Point of comparison: C[C@@H]1CCN2[C@@H](C1)N(C)C(=O)c1c(O)c(=O)c(-c3nnc(Cc4c(F)cc(F)cc4F)s3)cn12 [II-144], “FC in respect of mutant strain 1 (E138K/G140S/Q148H/N155H)” value 6.1. Against it:
- CN1C(=O)c2c(O)c(=O)c(-c3nnc(Cc4ccc(F)cc4F)s3)cn2N2CCOC[C@@H]12 [II-102] — higher, 25
- CN1C(=O)c2c(O)c(=O)c(-c3nnc(Cc4c(F)cc(F)cc4F)s3)cn2N2C[C@@H]3CC[C@@H](C3)[C@@H]12 [II-149] — higher, 14
- CCN1C(=O)c2c(O)c(=O)c(-c3nnc(Cc4ccc(F)cc4F)s3)cn2N2C[C@@H](C)CC[C@@H]12 [II-155] — lower, 5.2
- CCN1C(=O)c2c(O)c(=O)c(-c3nnc(Cc4c(F)cc(F)cc4F)s3)cn2N2C[C@@H]3CC[C@@H](C3)[C@@H]12 [II-131] — lower, 2.3
- CCN1C(=O)c2c(O)c(=O)c(-c3nnc(Cc4cc(F)c(F)cc4F)s3)cn2N2C[C@@H]3CC[C@@H](C3)[C@@H]12 [II-148] — higher, 8.3
- CN1C(=O)c2c(O)c(=O)c(-c3nnc(Cc4cccc(Cl)c4F)s3)cn2N2CCOC[C@@H]12 [II-122] — higher, 30
- COC[C@@H]1CC[C@H]2N(C)C(=O)c3c(O)c(=O)c(-c4nnc(Cc5c(F)cc(F)cc5F)s4)cn3N12 [II-151] — higher, 27
- CCN1C(=O)c2c(O)c(=O)c(-c3nnc(Cc4ccc(F)cc4)s3)cn2N2C[C@@H]3CC[C@@H](O3)[C@@H]12 [II-128] — higher, 20

Test system: HIV mutant strain 2 (E92Q/E138T/G140S/Q148H)
Experiment: Test Example 2: resistance evaluation test (HeLa-CD4 reporter), mutant strain 2
Type: cell-based
Details: FC=EC50 of mutant strain/EC50 of wild strain; HeLa-CD4 cells
Experimental: as §1, §2, §3, §4

Point of comparison: CN1C(=O)c2c(O)c(=O)c(-c3nnc(Cc4ccc(F)cc4F)s3)cn2N2CCOC[C@@H]12 [II-102], “FC in respect of mutant strain 2 (E92Q/E138T/G140S/Q148H)” value 22. Against it:
- CN1C(=O)c2c(O)c(=O)c(-c3nnc(Cc4c(F)cc(F)cc4F)s3)cn2N2C[C@@H]3CC[C@@H](C3)[C@@H]12 [II-149] — lower, 12
- CCN1C(=O)c2c(O)c(=O)c(-c3nnc(Cc4ccc(F)cc4F)s3)cn2N2C[C@@H](C)CC[C@@H]12 [II-155] — lower, 5.1
- CCN1C(=O)c2c(O)c(=O)c(-c3nnc(Cc4c(F)cc(F)cc4F)s3)cn2N2C[C@@H]3CC[C@@H](C3)[C@@H]12 [II-131] — lower, 3.5
- CCN1C(=O)c2c(O)c(=O)c(-c3nnc(Cc4cc(F)c(F)cc4F)s3)cn2N2C[C@@H]3CC[C@@H](C3)[C@@H]12 [II-148] — lower, 6.6
- CN1C(=O)c2c(O)c(=O)c(-c3nnc(Cc4cccc(Cl)c4F)s3)cn2N2CCOC[C@@H]12 [II-122] — higher, 25
- COC[C@@H]1CC[C@H]2N(C)C(=O)c3c(O)c(=O)c(-c4nnc(Cc5c(F)cc(F)cc5F)s4)cn3N12 [II-151] — lower, 17
- CCN1C(=O)c2c(O)c(=O)c(-c3nnc(Cc4ccc(F)cc4)s3)cn2N2C[C@@H]3CC[C@@H](O3)[C@@H]12 [II-128] — higher, 29
- C[C@@H]1CCN2[C@@H](C1)N(C)C(=O)c1c(O)c(=O)c(-c3nnc(Cc4c(F)cc(F)cc4F)s3)cn12 [II-144] — lower, 6.1

Test system: not listed separately
Experiment: Test Example 8: metabolic stability test
Type: in vitro ADME, human
Details: pooled human liver microsomes, 30 min at 37° C., NADPH, compound concentration 0.5 μmol/L
Experimental: The extent of metabolization of the compound according to the present invention in the liver was evaluated by reacting commercially available pooled human liver microsomes with the compound according to the present invention for a fixed time and calculating the remaining percentage by comparing the reaction sample with an unreacted sample.
The reaction (oxidative reaction) was conducted for 0 min or 30 min at 37° C. in the presence of 1 mmol/L of NADPH, in a 0.2 mL buffer solution containing 0.5 mg of human liver microsome protein/mL (50 mmol/L Tris-HCl pH 7.4, 150 mmol/L potassium chloride, 10 mmol/L magnesium chloride). After the reaction, 50 μL of reaction liquid were added to 100 μL of methanol/acetonitrile=1/1 (v/v) solution, mixed, and centrifuged for 15 minutes at 3000 rpm. The compound according to the present invention in the centrifuged supernatant was quantified using LC/MS/MS or solid phase extraction (SPE)/MS; the residual amount of the compound according to the present invention after the reaction was calculated, taking the amount of the compound at the 0 min reaction point as 100%.

Point of comparison: CCN1C(=O)c2c(O)c(=O)c(-c3nnc(Cc4ccc(F)cc4)s3)cn2N2C[C@@H]3CC[C@@H](O3)[C@@H]12 [II-128], Remaining percentage 103%. Against it:
- CN1C(=O)c2c(O)c(=O)c(-c3nnc(Cc4ccc(F)cc4F)s3)cn2N2CCOC[C@@H]12 [II-102] — higher, 106%
- CN1C(=O)c2c(O)c(=O)c(-c3nnc(Cc4c(F)cc(F)cc4F)s3)cn2N2C[C@@H]3CC[C@@H](C3)[C@@H]12 [II-149] — lower, 96.5%
- CCN1C(=O)c2c(O)c(=O)c(-c3nnc(Cc4ccc(F)cc4F)s3)cn2N2C[C@@H](C)CC[C@@H]12 [II-155] — lower, 93%
- CCN1C(=O)c2c(O)c(=O)c(-c3nnc(Cc4c(F)cc(F)cc4F)s3)cn2N2C[C@@H]3CC[C@@H](C3)[C@@H]12 [II-131] — lower, 83.4%
- CCN1C(=O)c2c(O)c(=O)c(-c3nnc(Cc4cc(F)c(F)cc4F)s3)cn2N2C[C@@H]3CC[C@@H](C3)[C@@H]12 [II-148] — lower, 71.7%
- CN1C(=O)c2c(O)c(=O)c(-c3nnc(Cc4cccc(Cl)c4F)s3)cn2N2CCOC[C@@H]12 [II-122] — lower, 102%
- COC[C@@H]1CC[C@H]2N(C)C(=O)c3c(O)c(=O)c(-c4nnc(Cc5c(F)cc(F)cc5F)s4)cn3N12 [II-151] — lower, 94.6%
- C[C@@H]1CCN2[C@@H](C1)N(C)C(=O)c1c(O)c(=O)c(-c3nnc(Cc4c(F)cc(F)cc4F)s3)cn12 [II-144] — lower, 94.2%
